Data taken from patent publication US20080113908A1, “Use of CRF receptor agonists for the treatment or Prophylaxis of diseases, for example Neurodegenerative diseases” (SmithKline Beecham plc, priority 2000, published 2008).

Tested on: primary cerebellar granule neurones
Assay: Neuroprotection by agonists with or without cAMP inhibitor Rp-cAMP (FIG. 4)
Assay type: cell-based, rat
Details: Rp-cAMP 100 μM; agonists 10 nM; LY 294002 75 μM
Description: FIG. 4 illustrates percentage mean survival of primary cerebellar granule neurones, when in the presence of the PI 3-kinase inhibitor LY 294002 (75 μM) and also a CRF receptor agonist at 10 nM (CRF, urocortin, urotensin 1, or sauvagine), in the absence or presence of the cAMP inhibitor Rp-cAMP (100 μM). The columns from left to right represent: (1) control without LY 294002 or agonist; (2) control without agonist but with LY 294002; (columns 3, 5, 7, 9) with LY 294002 and either CRF, urocortin, urotensin 1, or sauvagine respectively; (columns 4, 6, 8, 10) as columns 3, 5, 7 and 9 respectively but additionally also with Rp-cAMP. The approx. 20% reduction in neuroprotection when in the presence of Rp-cAMP is clear.

Question: With `Nc1ncnc2c1ncn2[C@@H]1O[C@@H]2CO[P@@](O)(=S)O[C@H]2[C@H]1O` [Rp-cAMPS] as the molecule, how does the “reduction of neuronal rescue provided by the CRF receptor agonists” value read?
Answer: Its value is “about 20%”.
